Measured values reported in patent US7879853B2, “4,6-disubstituted pyrimidines and their use as protein kinase inhibitors” (Bayer Schering Pharma AG, priority 2004, dated 2011).

Columns and labels:
GST-ΔPH-Akt1 = target: T1, GST-ΔPH-Akt1 (Homo sapiens, UniProt P31749); assay: Biochemical ΔPH Akt1 assay (flashplate, 33P-ATP, histone 2B); conditions: GST-ΔPH-Akt1, histone 2B substrate, 100 nM ATP, 80 minutes at 30° C.; read-out: Akt inhibition: IC50 (inhibition of deltaPHAkt1)
T1 construct: named GST-deltaPH-Akt1; 107480aa; cloned in the pAcG1 vector; made in house; host or cells: SF9 insect cells (pAcG1 vector), co-expressed with PDK1
Source text: For the biochemical assay ΔPHAkt1 was used devoid of its PH domain as a GST fusion protein (named GST-deltaPH-Akt1; 107480aa; cloned in the pAcG1 vector (BD Biosciences Pharmingen)), co-expressed with PDK1 in SF9 insect cells. The protein was purified using glutathion-affinity chromatography by standard protocols.
In order to study the inhibition of Akt according to the invention, a flashplate-based assay has been developed.
The Akt1 assay is a biochemical assay using Akt1 devoid of its PH domain and co-expressed with PDK1 in insect cells. The GST-ΔPH-Akt1 assay is run in 96 well plates by incubating 100 ng/well GST-ΔPH-Akt1, 100 ng/well histone 2B (Roche, #223514) as substrate, 10 μl of compound of invention (test compounds were dissolved as 10 mM solutions in dimethylsulfoxide (DMSO) and subsequently diluted) and 100 nM ATP (including ^33P-ATP) in 100 μl of reaction buffer ([…], pH7.5; 3 mM MgCl2; 3 mM MnCl2; 3 μM Na-Orthovanadat; 1 mM DTT; 1 μg/ml PEG8000) for 80 minutes at 30° C. The reactions are terminated by adding 100 μl stopping buffer (2% H3PO4 for 5 minutes) and are washed 3 times by using washing buffer (0.9% NaCl). Relying on the incorporation of ^33P into the protein substrate histone 2B, the detection is based on the adhesion of the phosphorylated protein to the surface of scintillator-coated flash plates (NEN, USA; #SMP-200). This phosphorylation is measured by counting the plate for 60 sec. using a plate reader (Wallac Microbeta; Perkin Elmer, USA). The analysis of the data is performed using a biostatistical program (GraphPad Prism, USA).

MCF7 cells = assay: Cellular proliferation/cytotoxicity assay (Alamar Blue), MCF7; format: cell-based; conditions: Homo sapiens; MCF7, 48 hours, Alamar Blue (Resazurin); read-out: Anti-proliferative/cytotoxic activity: IC50 MCF7
Procedure: (§1) The anti-proliferative activity of the compounds as described herein, is evaluated using MCF7 and MDA-MB-468 (ATCC HTB-22 and HTB-132) cell lines and the Alamar Blue (Resazurin) cell viability assay (O'Brien et al. Eur J Biochem 267, 5421-5426, 2000). Resazurin is reduced to the fluorescent rescrufin by cellular dehydrogenase activity, correlating with viable, proliferating cells. Test compounds are dissolved as 10 mM solutions in DMSO and subsequently diluted. MCF7 or […] cells were seeded into 96 well flat bottom plates at a density of 10000 cells/well (MCF7) or 5000 cells/well (MDA-MB-468) in a volume of 200 μl/well. 24 hours after seeding, 1 μl each of the compound dilutions are added into each well of the 96 well plates. Each compound dilution is tested as at least as duplicates. Wells containing untreated control cells were filled with 200 μl DMEM containing 0.5% v:v DMSO. The cells are then incubated with the substances for 48 hours at 37° C. in a humidified atmosphere containing 5% carbon dioxide. To determine cell viability, 20 μl of a Resazurin solution (Sigma; 90 mg/l) are added. After 4 hours incubation at 37° C. the fluorescence is measured at an extinction of 544 nm and an emission of 590 nm (Wallac Victor2; Perkin Elmer, USA). For the calculation of the cell viability the emission value from untreated cells is set as 100% viability and the emission rates of treated cells are set in relation to the values of untreated cells. Viabilities are expressed as % values. The corresponding IC50 values of the compounds for cytotoxic activity are determined from the concentration-effect curves by means of non-linear regression. The analysis of the data is performed using a biostatistical program (GraphPad Prism, USA).

MDA-MB-468 cells = assay: Cellular proliferation/cytotoxicity assay (Alamar Blue), MDA-MB-468; format: cell-based; conditions: Homo sapiens; MDA-MB-468, 48 hours, Alamar Blue (Resazurin); read-out: Anti-proliferative/cytotoxic activity: IC50 MDA468
Procedure: as §1

T1 sequence (P31749 107-480 limits assumed, stated change not applied): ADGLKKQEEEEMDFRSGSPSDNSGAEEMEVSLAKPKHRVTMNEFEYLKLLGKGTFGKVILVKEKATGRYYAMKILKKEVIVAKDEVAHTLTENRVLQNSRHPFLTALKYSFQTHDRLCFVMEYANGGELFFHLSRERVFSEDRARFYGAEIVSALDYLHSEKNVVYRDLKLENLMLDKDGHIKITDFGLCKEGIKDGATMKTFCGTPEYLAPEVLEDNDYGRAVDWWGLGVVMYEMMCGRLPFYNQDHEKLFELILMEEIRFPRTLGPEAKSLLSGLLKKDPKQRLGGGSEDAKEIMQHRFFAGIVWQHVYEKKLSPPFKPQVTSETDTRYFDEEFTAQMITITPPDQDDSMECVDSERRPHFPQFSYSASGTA

Row | Compound | IC50 (GST-ΔPH-Akt1) [µM] | melting point | IC50 (MCF7 cells) [µM] | IC50 (MDA-MB-468 cells) [µM]
1 | Nc1ccccc1C(=O)Nc1cccc(Nc2cc(-c3cccc4c3oc3ccccc34)ncn2)c1.O=C(O)C(F)(F)F [Compound 59, 2-Amino-N-[3-(6-dibenzofuran-4-yl-pyrimidin-4-ylamino)-phenyl]-benzamide trifluoroacetate] | ≤ 5 | 140 to 150 °C | – | –
2 | NCc1ccc(C(=O)Nc2ccc(Nc3cc(-c4cccc5c4oc4ccccc45)ncn3)cc2)nc1.O=C(O)C(F)(F)F [Compound 77, 5-Aminomethyl-pyridine-2-carboxylic acid [4-(6-dibenzofuran-4-yl-pyrimidin-4-ylamino)-phenyl]-amide trifluoroacetate] | ≤ 5 | 164 to 170 °C | – | –
3 | N#Cc1ccc(C(=O)Nc2ccc(Nc3cc(-c4cccc5c4oc4ccccc45)ncn3)cc2)cc1 [Compound 46, 4-Cyano-N-[4-(6-dibenzofuran 4-yl-pyrimidin-4-ylamino)-phenyl]-benzamide] | ≤ 5 | – | – | –
4 | CN(C)Cc1ccc(C(=O)Nc2ccc(Nc3cc(-c4cccc5c4oc4ccccc45)ncn3)cc2)cc1 [Compound 12, N-[4-(6-Dibenzofuran-4-yl-pyrimidin-4-ylamino)-phenyl]-4-dimethylaminomethyl-benzamide] | ≤ 5 | 299 °C | – | –
5 | O=C(Nc1ccc(Nc2cc(-c3cccc4c3oc3ccccc34)ncn2)cc1)c1ccc(Cl)c(Cl)c1 [Compound 9, 3,4-Dichloro-N-[4-(6-dibenzofuran-4-yl-pyrimidin-4-ylamino)-phenyl]-benzamide] | ≤ 5 | 317 to 321 °C | – | –
6 | NCc1cccc(C(=O)Nc2cccc(Nc3cc(-c4cccc5c4oc4ccccc45)ncn3)c2)c1.O=C(O)C(F)(F)F [Compound 61, 3-Aminomethyl-N-[3-(6-dibenzofuran-4-yl-pyrimidin-4-ylamino)-phenyl]-benzamide trifluoroacetate] | ≤ 5 | 150 to 156 °C | – | –
7 | N=C(N)c1ccc(C(=O)Nc2ccc(Nc3cc(-c4cccc5c4oc4ccccc45)ncn3)cc2)cc1 [Compound 47, 4-Carbamimidoyl-N-[4-(6-dibenzofuran-4-yl-pyrimidin-4-ylamino)-phenyl]-benzamide] | – | – | ≤ 16.6 | ≤ 6.05
8 | N=C(N)c1cccc(C(=O)Nc2ccc(Nc3cc(-c4cccc5c4oc4ccccc45)ncn3)cc2)c1 [Compound 45, 3-Carbamimidoyl-N-[4-(6-dibenzofuran-4-yl-pyrimidin-4-ylamino)-phenyl]-benzamide] | – | 300 to 306 °C | ≤ 16.6 | ≤ 6.05
9 | COCCNc1ccc(C(=O)Nc2ccc(Nc3cc(-c4cccc5c4oc4ccccc45)ncn3)cc2)cc1.O=C(O)C(F)(F)F [Compound 71, N-[4-(6-Dibenzofuran-4-yl-pyrimidin-4-ylamino)-phenyl]-4-(2-methoxyethylamino)benzamide trifluoroacetate] | ≤ 5 | > 250 °C | – | –
10 | Nc1ccc(C(=O)Nc2cccc(Nc3cc(-c4cccc5c4oc4ccccc45)ncn3)c2)cc1.O=C(O)C(F)(F)F [Compound 62, 4-Amino-N-[3-(6-dibenzofuran-4-yl-pyrimidin-4-ylamino)-phenyl]-benzamide trifluoroacetate] | ≤ 5 | 185 to 188 °C | – | –
11 | NCc1ccc(C(=O)Nc2ccc(Nc3cc(-c4cccc5c4oc4ccccc45)ncn3)cc2)c(F)c1 [Compound 72, 4-Aminomethyl-N-[4-(6-dibenzofuran-4-yl-pyrimidin-4-ylamino)-phenyl]-2-fluorobenzamide] | ≤ 5 | > 200 °C (dec.) | – | –
12 | CN(C)c1ccc(C(=O)Nc2cccc(Nc3cc(-c4cccc5c4oc4ccccc45)ncn3)c2)cc1 [Compound 42, N-[3-(6-Dibenzofuran-4-yl-pyrimidin-4-ylamino)-phenyl]-4-dimethylamino-benzamide] | ≤ 5 | > 250 °C | – | –
13 | O=C(Nc1ccc(Nc2cc(-c3cccc4c3oc3ccccc34)ncn2)cc1)c1ccncc1 [Compound 11, N-[4-(6-Dibenzofuran-4-yl-pyrimidin-4-ylamino)-phenyl]-isonicotinamide] | ≤ 5 | 283 to 295 °C | – | –
14 | CNCc1ccc(C(=O)Nc2ccc(Nc3cc(-c4cccc5c4oc4ccccc45)ncn3)cc2)cc1.O=C(O)C(F)(F)F [Compound 63, N-[4-(6-Dibenzofuran-4-yl-pyrimidin-4-ylamino)-phenyl]-4-methylaminomethyl-benzamide trifluoroacetate] | – | 130 to 140 °C | ≤ 16.6 | ≤ 6.05
15 | NCc1cccc(C(=O)Nc2ccc(Nc3cc(-c4cccc5c4oc4ccccc45)ncn3)cc2)c1.O=C(O)C(F)(F)F [Compound 54, 3-Aminomethyl-N-[4-(6-dibenzofuran-4-yl-pyrimidin-4-ylamino)-phenyl]-benzamide trifluoroacetate] | – | 238 to 240 °C | ≤ 16.6 | ≤ 6.05
16 | NCc1cncc(C(=O)Nc2ccc(Nc3cc(-c4cccc5c4oc4ccccc45)ncn3)cc2)c1 [Compound 74, 5-Aminomethyl-N-[4-(6-dibenzofuran-4-yl-pyrimidin-4-ylamino)-phenyl]-nicotinamide] | ≤ 5 | 184 °C (dec.) | – | –
17 | Nc1cccc(C(=O)Nc2ccc(Nc3cc(-c4cccc5c4oc4ccccc45)ncn3)cc2)c1.O=C(O)C(F)(F)F [Compound 51, 3-Amino-N-[4-(6-Dibenzofuran-4-yl-pyrimidin-4-ylamino)-phenyl]-benzamide trifluoroacetate] | ≤ 5 | 140 to 147 °C | – | –
18 | O=C(Nc1ccc(Nc2cc(-c3cccc4c3oc3ccccc34)ncn2)cc1)c1ccc(C2CCCNC2)cc1.O=C(O)C(F)(F)F (centres unmarked) [Compound 52, N-[4-(6-Dibenzofuran-4-yl-pyrimidin-4-ylamino)-phenyl]-4-piperidin-3-yl-benzamide trifluoroacetate] | – | 140 to 147 °C | ≤ 16.6 | ≤ 6.05
19 | O=C(Nc1ccc(Nc2cc(-c3cccc4c3oc3ccccc34)ncn2)cc1)c1cccc(N2CCCC2)c1 [Compound 6, N-[4-(6-Dibenzofuran-4-yl-pyrimidin-4-ylamino)-phenyl]-3-pyrrolidin-1-ylbenzamide] | ≤ 5 | 250 to 255 °C | – | –
20 | Cc1ccc(NC(=O)c2ccc(CN)cc2)cc1Nc1cc(-c2cccc3c2oc2ccccc23)ncn1.O=C(O)C(F)(F)F [Compound 67, 4-Aminomethyl-N-[3-(6-dibenzofuran-4-yl-pyrimidin-4-ylamino)-4-methyl-phenyl]-benzamide trifluoroacetate] | ≤ 5 | 180 to 185 °C | – | –
21 | O=C(Nc1ccc(Nc2cc(-c3cccc4c3oc3ccccc34)ncn2)cc1)c1ccc2c(c1)CCNC2.O=C(O)C(F)(F)F [Compound 78, 1,2,3,4-Tetrahydro-isoquinoline-6-carboxylic acid [4-(6-dibenzofuran-4-yl-pyrimidin-4-ylamino)-phenyl]-amide trifluoroacetate] | ≤ 5 | 146 °C | ≤ 16.6 | ≤ 6.05
